Drawing on ChEMBL document CHEMBL5365537, “Development of LM-41 and AF-2112, two flufenamic acid-derived TEAD inhibitors obtained through the replacement of the trifluoromethyl group by aryl rings” (Bioorg Med Chem Lett, 2023), this text covers deltaT, inhibition and Activity for 30 compounds.

Each structure is given as a SMILES string. Calls of active or inactive are those of the source. No cut-off for these calls is given here.

The target of test [1] is Transcriptional enhancer factor TEF-3 (Homo sapiens) (UniProt Q15561). Description: Binding affinity to TEAD4 (unknown origin) assessed as change in aggregation temperature at 25 uM by DSLS thermal shift assay.
The target is the same in test [2]. Description: Inhibition of TEAD4 in human MDA-MB-231 cells assessed as decrease in TEAD-dependent Axl gene expression at 10 uM incubated for 24 hrs by RT-qPCR analysis. The class given is cell-based. (In general: Real-time PCR tracks product formation cycle by cycle.)
A further test concerns MDA-MB-231. Description: Antimigratory activity against human MDA-MB-231 cells assessed as reduction in cell migration at 10 uM incubated for 48 hrs. The class given is functional, cell-based.
Test [3] concerns the target Transcriptional enhancer factor TEF-3 (Homo sapiens) (UniProt Q15561). Description: Inhibition of TEAD4 in human MDA-MB-231 cells assessed as decrease in TEAD-dependent Cyr61 gene expression at 10 uM incubated for 24 hrs by RT-qPCR analysis. The class given is cell-based.
The target is the same in test [4]. Description: Inhibition of TEAD4 in human MDA-MB-231 cells assessed as decrease in TEAD-dependent CTGF gene expression at 10 uM incubated for 24 hrs by RT-qPCR analysis. The format is cell-based.
Test [5] shares this target. Description: Inhibition of TEAD4 in human MDA-MB-231 cells assessed as decrease in TEAD-dependent NF2 gene expression at 10 uM incubated for 24 hrs by RT-qPCR analysis. The class given is cell-based.
For test [6] the target is unchanged. Description: Binding affinity to TEAD4 (unknown origin) assessed as change in aggregation temperature at 25 uM by DSF assay. In general terms: Differential scanning fluorimetry follows unfolding on heating by fluorescence.

Chain of Transcriptional enhancer factor TEF-3 (Homo sapiens) (Q15561 whole entry): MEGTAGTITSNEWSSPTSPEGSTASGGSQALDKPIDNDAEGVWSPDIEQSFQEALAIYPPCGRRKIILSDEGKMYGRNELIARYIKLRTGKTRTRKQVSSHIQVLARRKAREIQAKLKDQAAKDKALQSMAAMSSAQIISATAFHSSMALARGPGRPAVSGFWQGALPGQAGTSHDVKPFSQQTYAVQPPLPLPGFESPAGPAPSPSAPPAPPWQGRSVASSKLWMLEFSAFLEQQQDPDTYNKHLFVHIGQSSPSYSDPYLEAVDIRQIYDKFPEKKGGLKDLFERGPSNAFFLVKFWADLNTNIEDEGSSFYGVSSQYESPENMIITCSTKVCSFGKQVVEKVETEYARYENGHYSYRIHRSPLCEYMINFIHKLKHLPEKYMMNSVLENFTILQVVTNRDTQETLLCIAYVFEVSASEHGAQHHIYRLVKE

In the case of `O=C(O)c1ccc(F)cc1Nc1cccc(-c2cccc(F)c2)c1`, the deltaT in test [1] is 3.9 °C.

On to `COc1ccccc1-c1cccc(Nc2cc(F)ccc2C(=O)O)c1`, for which, in test [1], the deltaT is 1.3 °C.

On to `O=C(O)c1ccc(F)cc1Nc1cccc(-c2ccccc2)c1`, for which the inhibition result in test [2], in test [3], in test [4] and in test [5] was “Active” each time. Also, the deltaT in test [1] is 3.4 °C. In addition, the result in the test on MDA-MB-231 was Active.

`Cc1ccc(Nc2cc(F)ccc2C(=O)O)cc1OCc1ccccc1`: the deltaT in test [1] was 3.8 °C.

Take `O=C(O)c1ccc(F)cc1Nc1cccc(Cc2ccccc2)c1`: the deltaT in test [1] amounted to 3 °C.

Consider `O=C(O)c1ccc(F)cc1Nc1ccccc1-c1cccs1`, for which the inhibition result in test [2], in test [3], in test [4] and in test [5] was “inactive” in each case. Also, in test [1], the deltaT came out at 5.5 °C.

With `O=C(O)c1ccc(F)cc1Nc1cccc(-c2ccccc2C(F)(F)F)c1`, in test [1], the deltaT was found to be 2.5 °C.

Consider `O=C(O)c1ccc(F)cc1Nc1cccc(-c2cccc(C(F)(F)F)c2)c1`, for which the deltaT in test [1] was found to be 6.2 °C.

Turning to `O=C(O)c1ccc(F)cc1Nc1cccc(COc2ccccc2)c1`, in test [1], the deltaT was found to be 3 °C.

As to `COc1ccc(-c2cccc(Nc3cc(F)ccc3C(=O)O)c2)cc1`, the deltaT in test [1] turned out to be 2.7 °C.

For `O=C(O)c1ccc(F)cc1Nc1cccc(-c2ccc(C(F)(F)F)cc2)c1`, the deltaT in test [1] came to 4.5 °C.

As for `COc1cccc(-c2cccc(Nc3cc(F)ccc3C(=O)O)c2)c1`, the deltaT in test [1] came to 3.5 °C.

`Cc1ccc(Nc2cccc(OCc3ccccc3)c2)c(C(=O)O)c1`: the inhibition entry in test [2] and in test [3] was “inactive” throughout. Further, in test [1], the deltaT was 4 °C. Besides, the result in the test with MDA-MB-231 was Active. For the same compound, the inhibition result in test [4] and in test [5] was “Active” in each case.

With `O=C(O)c1ccccc1Nc1cccc(C(F)(F)F)c1`, the inhibition entry in test [2], in test [3], in test [4] and in test [5] was “inactive” throughout. Besides, the result in the test on MDA-MB-231 was inactive.

In the case of `O=C(O)c1ccc(F)cc1Nc1cccc(-c2cccc(Br)c2)c1`, in test [1], the deltaT amounted to 3.9 °C.

Regarding `O=C(O)c1ccccc1Nc1cccc(-c2ccccc2)c1`, the deltaT in test [1] was determined as 2.1 °C.

As to `O=C(O)c1cccnc1Nc1cccc(C(F)(F)F)c1`, the inhibition result in test [2], in test [3], in test [4] and in test [5] was “inactive” throughout.

Regarding `O=C(O)c1cccnc1Nc1cccc(OCCc2ccccc2)c1`, the inhibition entry in test [2], in test [3], in test [4] and in test [5] was “inactive” each time. Also, the deltaT in test [6] is 3.6 °C.

Turning to `Cc1ccc(C(=O)O)c(Nc2cccc(OCc3ccccc3)c2)c1`, in test [1], the deltaT was determined as 2.3 °C.

Consider `O=C(O)c1cccnc1Nc1cccc(-c2cccc(C(F)(F)F)c2)c1`, for which, in test [1], the deltaT turned out to be 4.8 °C.

On to `Cc1ccc(Nc2cc(F)ccc2C(=O)O)cc1`, for which the deltaT in test [1] amounted to 4 °C.

With `O=C(O)c1ccc(F)cc1Nc1cccc(OCCc2ccccc2)c1`, the inhibition entry in test [2], in test [3], in test [4] and in test [5] was “Active” throughout. Moreover, the deltaT in test [1] stood at 5.1 °C. Also, the outcome with MDA-MB-231 was Active.

Turning to `O=C(O)c1ccc(F)cc1Nc1cccc(-c2ccccn2)c1`, the deltaT in test [1] came to 1 °C.

Take `Cc1ccccc1Nc1cc(F)ccc1C(=O)O`: the deltaT in test [1] amounted to 2.2 °C.

Turning to `O=C(O)c1ccc(F)cc1Nc1cccc(CCc2ccccc2)c1`, in test [1], the deltaT is 5.6 °C.

Regarding `O=C(O)c1ccc(F)cc1Nc1cccc(-c2cccc(Cl)c2)c1`, the deltaT in test [1] stood at 3.1 °C.

In the case of `O=C(O)c1ccccc1Nc1cccc(OCc2ccccc2)c1`, the deltaT in test [1] came to 2.9 °C.

In the case of `O=C(O)c1ccc(F)cc1Nc1cccc(-c2cccnc2)c1`, in test [1], the deltaT came out at 0 °C.

With `O=C(O)c1ccc(F)cc1Nc1cccc(OCc2ccccc2)c1`, the inhibition entry in test [2] and in test [3] was “inactive” in each case. For the same compound, in test [1], the deltaT came to 3.8 °C. The inhibition result in test [4] and in test [5] was “Active” in each case.

Take `Cc1cccc(Nc2cc(F)ccc2C(=O)O)c1`: the deltaT in test [1] worked out at 4.7 °C.
